The data set relates to Persia mites. Put plainly: Spray on avocado trees infested with Persia mites. Format: in vivo. The note with it: Example 14, diluted 200 times water. On the procedure: Soybean extract and soybean slurry prepared as described above are used in the following examples. Many of the following examples involve spraying solutions onto leaves. The amount sprayed in the subsequent examples is quantified as spraying an amount sufficient to totally wet the plant or leaf surface.
The prepared concentrated insecticide is then diluted with 100 times water and thereafter sprayed onto avocado trees infested with Persia mites. A control sample using water was also tested. The results are as follows:
The effectiveness of soybean extract (Sample I) sprayed upon avocado leaves infested with Persia mites is evaluated. Sample I is diluted at both 100 times and 500 times water and thereafter sprayed onto avocado trees infested with Persia mites. A control sample using water was also tested. The results are as follows:
The same samples used in Example 5 are also used in testing effectiveness for control of mites. The samples are diluted with 100 times water and sprayed onto avocado trees infested with Persia mites. Two controls were used: the first, pure water; and, the second, clove oil diluted 100 times with water. The test results are as the following:
The same samples used in Example 7 are also used in testing the control of mites. The samples are diluted with 100 times water and sprayed onto avocado trees infested with Persia mites. The test results are as the following: […]

Take `O=C/C=C/c1ccccc1` [Cinnamic Aldehyde, cinnamic aldehyde]: the “Mortality (%)” value (6 days after spray) is recorded as 57.3%. Also, for the setting “average number of mites per leaf, avocado trees”, the “No. Mites 6 Days After Spray” value was found to be 10.8.

These data come from patent US20020103084A1, “Soybean derived pesticide” (priority 2000, published 2002).
